According to PubChem BioAssay (NCI):
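GI50: concentration for 50% inhibition of growth. TGI marks complete inhibition of growth.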

Assays:
Experiment in all cases: DTP human tumour cell line panel, 384-well format
OVCAR-8 ovarian = system: OVCAR-8 ovarian
MOLT-4 leukemia = system: MOLT-4 leukemia
SK-MEL-28 melanoma = system: SK-MEL-28 melanoma
SW-620 colon = system: SW-620 colon
CAKI-1 renal = system: CAKI-1 renal
ACHN renal = system: ACHN renal
NCI-H322M lung = system: NCI-H322M lung
UO-31 renal = system: UO-31 renal
SK-OV-3 ovarian = system: SK-OV-3 ovarian
HCC-2998 colon = system: HCC-2998 colon
HL-60(TB) leukemia = system: HL-60(TB) leukemia
SF-295 CNS = system: SF-295 CNS
RPMI-8226 leukemia = system: RPMI-8226 leukemia

Row | Structure (SMILES) | GI50 (OVCAR-8 ovarian) [nM] | TGI (OVCAR-8 ovarian) [nM] | GI50 (MOLT-4 leukemia) [nM] | TGI (MOLT-4 leukemia) [nM] | GI50 (SK-MEL-28 melanoma) [nM] | TGI (SK-MEL-28 melanoma) [nM] | GI50 (SW-620 colon) [nM] | TGI (SW-620 colon) [nM] | GI50 (CAKI-1 renal) [nM] | TGI (CAKI-1 renal) [nM] | GI50 (ACHN renal) [nM] | TGI (ACHN renal) [nM] | GI50 (NCI-H322M lung) [nM] | TGI (NCI-H322M lung) [nM] | GI50 (UO-31 renal) [nM] | TGI (UO-31 renal) [nM] | GI50 (SK-OV-3 ovarian) [nM] | TGI (SK-OV-3 ovarian) [nM] | GI50 (HCC-2998 colon) [nM] | TGI (HCC-2998 colon) [nM] | also measured
1 | Cc1[nH]c2ccccc2c1CCNCc1ccc(/C=C/C(=O)NO)cc1 | < 10 | 28.6 | < 10 | < 10 | 15.3 | 38 | 12.3 | 25.5 | 13.1 | 28.6 | 20.3 | 53.8 | 13.9 | 53.8 | 31.8 | 128 | 15.4 | 33.3 | 15.1 | 33.7 | GI50 (HL-60(TB) leukemia): < 10 nM; TGI (HL-60(TB) leukemia): < 10 nM; GI50 (SF-295 CNS): 18.5 nM; TGI (SF-295 CNS): 41.3 nM; GI50 (RPMI-8226 leukemia): < 10 nM; TGI (RPMI-8226 leukemia): < 10 nM
2 | COCCNc1cc(NC(=O)N2CCCc3cc(CN4CCN(C)CC4=O)c(C=O)nc32)ncc1C#N | > 100000 | > 100000 | 6800 | > 100000 | > 100000 | > 100000 | > 100000 | > 100000 | > 100000 | > 100000 | > 100000 | > 100000 | > 100000 | > 100000 | > 100000 | > 100000 | > 100000 | > 100000 | > 100000 | > 100000 | GI50 (HL-60(TB) leukemia): 99600 nM; TGI (HL-60(TB) leukemia): > 100000 nM; GI50 (SF-295 CNS): > 100000 nM; TGI (SF-295 CNS): > 100000 nM; GI50 (RPMI-8226 leukemia): > 21100 nM; TGI (RPMI-8226 leukemia): > 43900 nM
